Test results: patent publication US9992997B2, “Composition comprising bromadiolone, rodenticide bait, and method for controlling target rodent pests” (priority 2014, dated 2018)
Where two headings read alike, the source gives them in different places.

Tests used:
[1] = Hepatic persistence of Homo-SI/Hetero-SI mixtures in the female rat; format: in vivo, female rats
Protocol: Hepatic Persistence of the Homo-SI and Hetero-SI Configurational Stereoisomers of Bromadiolone in the Female Rat
The following compositions concentrated in the Homo-SI or Hetero-SI configurational stereoisomers are prepared by one of the chromatography methods described above, in which the molar ratios are as follows: • Homo-SI/Hetero-SI: 80/20; • Homo-SI/Hetero-SI: 20/80.
The procedure with the female rats is the same as that with the male rats as described above. The mean hepatic contents of the Homo-SI and Hetero-SI isomers of the female rats are analysed by HPLC and are given in Table 4 below.

[2] = Hepatic persistence of Homo-SI/Hetero-SI mixtures in the male rat; format: in vivo, male Sprague Dawley rats
Protocol: Hepatic Persistence of the Homo-SI and Hetero-SI Configurational Stereoisomers of Bromadiolone in the Male Rat
The following compositions concentrated in the Homo-SI or Hetero-SI configurational stereoisomers are prepared by one of the chromatography methods described above, in which the molar ratios are as follows: • Homo-SI/Hetero-SI: 80/20; • Homo-SI/Hetero-SI: 4/96.
On D0 16 male laboratory rats (Sprague Dawley rats, Charles River, Saint germain sur l'Arbresle, France) having a body weight of the order of 200 g are tube-fed with a dose of the 80/20 mixture or the 4/96 mixture above in an amount of 3.8 mg of bromadiolone per kilogram of rat. The rats are kept alive by daily subcutaneous injection of a solution of vitamin K. On D+1, D+3, D+5 and D+10, 4 rats are anaesthetised with isoflurane and then sacrificed, and the livers are removed and frozen until analysed.

[3] = target: T1, Vitamin K Epoxide Reductase Complex 1 (VKORC1) (Rattus norvegicus, UniProt Q6TEK4); assay: Inhibition of vitamin K epoxide reductase (VKOR) activity in vitro, rat liver microsomes; format: biochemical; details: microsomes of livers of rats sensitive to AVK; preparations 96% pure; read-out: inhibition constants (Ki) of VKOR activity
T1 construct: catalysed by microsomes of the livers of rats sensitive to anti-vitamin K (AVK) compounds; from tissue; host or cells: rat liver microsomes
T1 sequence (Q6TEK4 1-161): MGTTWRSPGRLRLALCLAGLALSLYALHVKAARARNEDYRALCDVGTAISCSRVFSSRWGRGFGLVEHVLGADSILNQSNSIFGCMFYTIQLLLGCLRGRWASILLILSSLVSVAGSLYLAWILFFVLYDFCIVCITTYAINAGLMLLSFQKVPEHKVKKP
Protocol: Inhibition of Vitamin K Epoxide Reductase Complex 1 (VKORC1) In Vitro by the Homostereoisomer and by the Heterostereoisomer of Bromadiolone
The inhibitory power of two preparations concentrated respectively in the homostereoisomer (Homo-SI) and heterostereoisomer (Hetero-SI) of bromadiolone was evaluated utilising measurement of the activity of vitamin K epoxide reductase (VKOR) catalysed by microsomes of the livers of rats sensitive to anti-vitamin K (AVK) compounds. The configurational stereoisomers of bromadiolone are partially purified by HPLC chromatography over a gradient of composition (A/B) as described in Table 1 above. The preparation concentrated in Homo-SI is made up of 96% Homo-SI and 4% Hetero-SI. The preparation concentrated in Hetero-SI is made up of 96% Hetero-SI and 4% Homo-SI. […] The inhibitory power on the toxicological target of each of the two isomers is therefore similar.

[4] = Hepatic persistence in the rat after single tube-feeding of Homo-SI or Hetero-SI; format: in vivo, Sprague Dawley rats
Protocol: Hepatic Persistence of the Homostereoisomer (Homo-SI) and the Heterostereoisomer (Hetero-SI) of Bromadiolone in the Rat
On D0 laboratory rats (Sprague Dawley rats, Charles River, Saint germain sur l'Arbresle, France) having a body weight of the order of 200 g are tube-fed with a solution of Homo-SI in a mixture of oil/DMSO or with a solution of Hetero-SI in an identical mixture of oil/DMSO in an amount of 3.0 mg of bromadiolone per kilogram of rat. The rats are kept alive by daily subcutaneous injection of a solution of vitamin K in an amount of 0.1 U per rat. On D+1, D+3, D+7, D+14 and D+21 4 rats are anaesthetised with isoflurane and then sacrificed, and the livers are removed and frozen until analysed. The course with respect to time of the mean hepatic contents of the configurational stereoisomers “Homo-SI” (▪) and “Hetero-SI” (◯) are analysed by HPLC, given in Table 2 below and shown in FIG. 4 (the symbol (▪) represents Homo-SI and the symbol (◯) represents Hetero-SI).

Sprague Dawley rats = assay: Multi-feeding administration of composition concentrated in Homo-SI, coagulation time (Quick time); format: in vivo; details: daily dose of 0.25 mg during 3 consecutive days, male or female rat
Protocol: Administration of a Composition Concentrated in Homo-SI by Multiple Ingestions (“Multi-Feeding”)
A composition of bromadiolone comprising 96% Homo-SI and 4% Hetero-SI is administered daily by tube-feeding during three days (D0, D+1 and D+2) to groups of 3 male or female laboratory rats (Sprague Dawley rats of 200 g) in an amount of: • 0.05 mg of bromadiolone per kilogram of rat, or • 0.1 mg of bromadiolone per kilogram of rat, or • 0.25 mg of bromadiolone per kilogram of rat, or • 0.5 mg of bromadiolone per kilogram of rat, or • 0.75 mg of bromadiolone per kilogram of rat.
On these rats blood samples are taken and on D+3 the coagulation time (Quick time, expressed in seconds) of the plasma is measured by means of the “Neoplastine CI Determination of Prothrombin Time” kit (Diagnostica Stago, Asnière, France) by measurement on a Thrombotimer option 2 plus apparatus (Behnk Electronik, Norderstedt, Germany).
The results obtained are given in FIG. 5, on which the hatched histograms represent the coagulation time of the female rats and the solid histograms represent the coagulation times of the male rats. By way of indication, the normal value for the coagulation time of untreated rats is of the order of 10 to 20 seconds.

[5] = D + 1, 3.0 mg/kg tube-fed on D0, 3 mg/kg
[6] = D + 3, 3.0 mg/kg tube-fed on D0, 3 mg/kg
[7] = D + 7, 3.0 mg/kg tube-fed on D0, 3 mg/kg
[8] = D + 14, 3.0 mg/kg tube-fed on D0, 3 mg/kg

## O=c1oc2ccccc2c(O)c1C(CC(O)c1ccc(-c2ccc(Br)cc2)cc1)c1ccccc1 (stereo not shown) [Mixture 80/20]
[1]; D + 1
  Hepatic content of total bromadiolone: 25.39 µg/g
[1]; D + 3
  Hepatic content of total bromadiolone: 12.6 µg/g
[1]; D + 9
  Hepatic content of total bromadiolone: 2.47 µg/g
[2]; 3.8 mg/kg, D + 1, 3.8 mg/kg
  Hepatic content of total bromadiolone: 7.85 ± 0.51 µg/g
[2]; 3.8 mg/kg, D + 3, 3.8 mg/kg
  Hepatic content of total bromadiolone: 3.49 ± 0.29 µg/g
[2]; 3.8 mg/kg, D + 5, 3.8 mg/kg
  Hepatic content of total bromadiolone: 2.15 ± 0.90 µg/g
[2]; 3.8 mg/kg, D + 10, 3.8 mg/kg
  Hepatic content of total bromadiolone: 1.33 ± 0.14 µg/g
[2]; listed as 80/20 mixture
  hepatic persistence (comparison with Hetero-SI or 4/96 mixture): less persistent
[2]; male, Sprague Dawley, rat, liver, oral, 3.8 mg/kg, D + 1, read-out: Hepatic content of total bromadiolone
  concentration at 1 day: 7850 ng/g

## O=c1oc2ccccc2c(O)c1C(CC(O)c1ccc(-c2ccc(Br)cc2)cc1)c1ccccc1 (stereo not shown) [Homo-SI, 3-[3-(4′-bromo-[1,1′-biphenyl]-4-yl)-3-hydroxy-1-phenylpropyl]-4-hydroxy-2H-1-benzopyran-2-one]
[1]
  hepatic persistence compared with Hetero-SI: significantly lower
[2]
  hepatic persistence (comparison with Hetero-SI or 4/96 mixture): significantly lower
[3]
  Ki: ~30 nM
[4]; [5]
  Hepatic content: 8.27 ± 2.72 µg/g
[4]; [6]
  Hepatic content: 2.34 ± 0.43 µg/g
[4]; [7]
  Hepatic content: 1.57 ± 0.21 µg/g
[4]; [8]
  Hepatic content: 0.99 ± 0.06 µg/g
[4]; Sprague Dawley, rat, liver, oral, 3 mg/kg, D + 21, 3.0 mg/kg tube-fed on D0, read-out: Hepatic content
  concentration at 21 day: 920 ± 80 ng/g
[4]; rat, equal initial dose
  hepatic persistence compared with Hetero-SI: significantly lower

## O=c1oc2ccccc2c(O)c1C(CC(O)c1ccc(-c2ccc(Br)cc2)cc1)c1ccccc1 (stereo not shown) [Mixture 20/80, reference compound]
[1]; D + 9
  Hepatic content of total bromadiolone: 7.18 µg/g
[1]; female, Sprague Dawley, rat, liver, oral, 3.8 mg/kg, D + 1, read-out: Hepatic content of total bromadiolone
  concentration at 1 day: 32500 ng/g
[1]; female, Sprague Dawley, rat, liver, oral, 3.8 mg/kg, D + 3, read-out: Hepatic content of total bromadiolone
  concentration at 3 day: 24200 ng/g
[1]; female, Sprague Dawley, rat, liver, oral, 3.8 mg/kg, D + 5, read-out: Hepatic content of total bromadiolone
  concentration at 5 day: 16400 ng/g

## O=c1oc2ccccc2c(O)c1C(CC(O)c1ccc(-c2ccc(Br)cc2)cc1)c1ccccc1 (stereo not shown) [Mixture 4/96, reference compound]
[2]; 3.8 mg/kg, D + 1, 3.8 mg/kg
  Hepatic content of total bromadiolone: 14.96 ± 2.0 µg/g
[2]; 3.8 mg/kg, D + 1, listed as 4/96 mixture, 3.8 mg/kg
  Hepatic content of total bromadiolone: 14.96 µg/g
[2]; 3.8 mg/kg, D + 3, 3.8 mg/kg
  Hepatic content of total bromadiolone: 10.08 ± 3.3 µg/g
[2]; 3.8 mg/kg, D + 5, 3.8 mg/kg
  Hepatic content of total bromadiolone: 9.99 ± 1.0 µg/g
[2]; male, Sprague Dawley, rat, liver, oral, 3.8 mg/kg, D + 10, read-out: Hepatic content of total bromadiolone
  concentration at 10 day: 2390 ng/g

## O=c1oc2ccccc2c(O)c1C(CC(O)c1ccc(-c2ccc(Br)cc2)cc1)c1ccccc1 (stereo not shown) [96/4]
Sprague Dawley rats
  effect of repeated ingestion (anticoagulant effect, haemorrhage, death): sufficient to obtain an anticoagulant effect, a haemorrhage in the rat (male or female) and its death

## O=c1oc2ccccc2c(O)c1C(CC(O)c1ccc(-c2ccc(Br)cc2)cc1)c1ccccc1 (stereo not shown) [Hetero-SI, reference compound]
[3]
  Ki: ~50 nM
[4]; [5]
  Hepatic content: 18.62 ± 2.22 µg/g
[4]; [6]
  Hepatic content: 14.70 ± 1.06 µg/g
[4]; [7]
  Hepatic content: 5.20 ± 0.75 µg/g
[4]; [8]
  Hepatic content: 2.67 ± 1.07 µg/g
[4]; D + 21, 3.0 mg/kg tube-fed on D0, 3 mg/kg
  Hepatic content: 0.99 ± 0.07 µg/g
